Reference: PMC7044277 (Nature Communications, 2020)
Where “and” joins values, the source holds several entries; their conditions need not be identical. Equal entries are not always repeated.

Tests used:
Format in all cases: cell-based
Set-up in all cases: GPCRome screening signal at PTGIR / GPCRome screening signal at PTH1R / GPCRome screening signal at PTH2R / GPCRome screening signal at QRFP / GPCRome screening signal at RXFP2 / GPCRome screening signal at RXFP3 / GPCRome screening signal at RXFP4 / GPCRome screening signal at S1PR2 / GPCRome screening signal at S1PR3 / GPCRome screening signal at S1PR4 / GPCRome screening signal at S1PR5 / GPCRome screening signal at SCTR / GPCRome screening signal at SSTR2 / GPCRome screening signal at SSSTR / GPCRome screening signal at SSTR4 / GPCRome screening signal at SSTR5 / GPCRome screening signal at SUCNR1 / GPCRome screening signal at TA1 / GPCRome screening signal at TAAR2 / GPCRome screening signal at TAAR5 / GPCRome screening signal at TAAR6 / GPCRome screening signal at TAAR8 / GPCRome screening signal at TACR1 / GPCRome screening signal at TACR2 / GPCRome screening signal at TACR3 / GPCRome screening signal at TBXA2R / GPCRome screening signal at TSHR / GPCRome screening signal at UTS2R / GPCRome screening signal at VIPR2 / GPCRome screening signal at GPR68 no V2 Tail / GPCRome screening signal at GRM2 / GPCRome screening signal at GRM3: reference not given here
320 non-olfactory GPCRs [1] = target: T1, 320 non-olfactory GPCRs (Homo sapiens, UniProt Q969N4); details: receptor TAAR8
T1 construct: expressed in transfected cells; host or cells: HTLA cells

320 non-olfactory GPCRs [2] = target: 320 non-olfactory GPCRs (Homo sapiens, UniProt P35346); details: receptor SSTR5
320 non-olfactory GPCRs [3] = target: T2, 320 non-olfactory GPCRs (Homo sapiens, UniProt Q14416); details: receptor GRM2
T2 construct: expressed in transfected cells; host or cells: HTLA cells

320 non-olfactory GPCRs [4] = target: 320 non-olfactory GPCRs (Homo sapiens, UniProt Q03431); details: receptor PTH1R
[5] = Fig_5f, single replicate values
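Wherever GPCRome agonism screen response is given: fold over basal response of each receptor without drug.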

T1 sequence (Q969N4 whole entry): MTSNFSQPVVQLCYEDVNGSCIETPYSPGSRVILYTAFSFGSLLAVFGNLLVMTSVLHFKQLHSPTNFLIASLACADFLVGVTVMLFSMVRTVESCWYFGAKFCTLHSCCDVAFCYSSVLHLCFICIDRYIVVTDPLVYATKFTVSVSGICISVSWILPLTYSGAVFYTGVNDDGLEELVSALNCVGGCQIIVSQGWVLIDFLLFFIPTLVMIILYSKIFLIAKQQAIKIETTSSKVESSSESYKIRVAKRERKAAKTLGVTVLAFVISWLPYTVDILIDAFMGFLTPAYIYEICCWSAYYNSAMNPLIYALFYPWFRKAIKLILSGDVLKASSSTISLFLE
Sequence of 320 non-olfactory GPCRs (Homo sapiens, UniProt Q03431) (Q03431 27-593): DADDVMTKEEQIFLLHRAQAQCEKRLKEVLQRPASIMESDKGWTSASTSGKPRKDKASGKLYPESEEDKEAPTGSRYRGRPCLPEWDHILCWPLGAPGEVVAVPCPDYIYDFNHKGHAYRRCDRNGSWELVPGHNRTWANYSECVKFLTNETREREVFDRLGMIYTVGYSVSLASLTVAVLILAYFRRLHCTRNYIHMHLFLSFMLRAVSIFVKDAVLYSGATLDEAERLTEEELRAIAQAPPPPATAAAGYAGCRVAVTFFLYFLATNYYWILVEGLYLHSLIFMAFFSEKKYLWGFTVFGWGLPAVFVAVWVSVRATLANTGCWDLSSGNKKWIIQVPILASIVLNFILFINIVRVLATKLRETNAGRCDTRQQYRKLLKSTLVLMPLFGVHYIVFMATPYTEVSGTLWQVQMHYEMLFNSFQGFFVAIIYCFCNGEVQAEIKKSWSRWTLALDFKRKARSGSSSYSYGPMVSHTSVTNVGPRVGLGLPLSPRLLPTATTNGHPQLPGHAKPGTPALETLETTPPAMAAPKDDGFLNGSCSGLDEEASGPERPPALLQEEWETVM
T2 sequence (Q14416 19-872): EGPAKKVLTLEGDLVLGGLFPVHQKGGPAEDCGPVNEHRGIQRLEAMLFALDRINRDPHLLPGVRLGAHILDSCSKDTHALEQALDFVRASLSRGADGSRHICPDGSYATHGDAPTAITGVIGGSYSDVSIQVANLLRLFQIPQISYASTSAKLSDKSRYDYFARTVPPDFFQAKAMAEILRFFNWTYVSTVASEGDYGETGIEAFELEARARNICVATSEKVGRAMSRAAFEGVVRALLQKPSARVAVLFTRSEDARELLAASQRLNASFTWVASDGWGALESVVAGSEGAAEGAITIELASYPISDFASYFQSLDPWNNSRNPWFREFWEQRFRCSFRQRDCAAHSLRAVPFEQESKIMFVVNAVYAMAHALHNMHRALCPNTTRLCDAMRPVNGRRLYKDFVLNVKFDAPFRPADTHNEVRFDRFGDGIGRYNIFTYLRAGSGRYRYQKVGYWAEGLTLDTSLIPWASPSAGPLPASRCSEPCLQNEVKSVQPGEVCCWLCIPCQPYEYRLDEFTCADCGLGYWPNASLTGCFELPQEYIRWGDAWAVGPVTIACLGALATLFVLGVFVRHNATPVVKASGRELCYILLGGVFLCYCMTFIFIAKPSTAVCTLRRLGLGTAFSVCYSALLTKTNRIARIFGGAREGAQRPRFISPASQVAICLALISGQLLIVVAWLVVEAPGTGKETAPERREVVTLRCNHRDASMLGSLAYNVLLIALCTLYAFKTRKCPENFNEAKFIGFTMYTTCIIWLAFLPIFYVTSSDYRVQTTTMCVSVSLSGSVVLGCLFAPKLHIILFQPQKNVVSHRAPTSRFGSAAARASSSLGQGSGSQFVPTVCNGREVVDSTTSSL
Sequence of 320 non-olfactory GPCRs (Homo sapiens, UniProt P35346) (P35346 whole entry): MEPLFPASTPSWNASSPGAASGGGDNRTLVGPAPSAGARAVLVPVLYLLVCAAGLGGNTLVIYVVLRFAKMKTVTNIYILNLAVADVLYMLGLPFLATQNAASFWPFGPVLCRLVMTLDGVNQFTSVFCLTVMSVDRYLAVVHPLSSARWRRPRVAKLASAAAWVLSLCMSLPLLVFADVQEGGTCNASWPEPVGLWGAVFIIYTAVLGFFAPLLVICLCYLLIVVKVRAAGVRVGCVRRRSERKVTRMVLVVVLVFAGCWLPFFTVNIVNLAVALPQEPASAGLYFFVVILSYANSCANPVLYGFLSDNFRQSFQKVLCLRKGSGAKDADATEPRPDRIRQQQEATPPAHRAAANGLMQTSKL

GPCRome screening signal at TAAR8 (320 non-olfactory GPCRs [1]; [5]) | GPCRome screening signal at SSTR5 (320 non-olfactory GPCRs [2]; [5]) | GPCRome screening signal at GRM2 (320 non-olfactory GPCRs [3]; [5]) | GPCRome screening signal at PTH1R (320 non-olfactory GPCRs [4]; [5]) | SMILES | GPCRome agonism screen response (320 non-olfactory GPCRs [1]; replicate values, Fig_4g) | GPCRome agonism screen response (320 non-olfactory GPCRs [2]; replicate values, Fig_4g) | GPCRome agonism screen response (320 non-olfactory GPCRs [3]; replicate values, Fig_4g) | GPCRome agonism screen response (320 non-olfactory GPCRs [4]; replicate values, Fig_4g)
0.6115 and 0.4578 and 0.5144 and 0.5546 | 1.884 and 1.207 and 1.033 and 0.572 | 0.9548 and 1.3016 and 1.1 and 0.9506 | 2.489 and 1.041 and 1.352 and 1.077 | CCOc1ccccc1CCC(C)NCC1(O)CCCCC1.Cl (racemic) [Fig_5f] |  |  |  | 
 |  |  |  | CCOc1cccc2cc(C(C)NCC3(O)CCCCC3)oc12 (centres unmarked) [O4LE6] | 0.2595 and 0.5748 and 0.5852 and 0.7484 | 1.067 and 0.3371 and 0.8014 and 0.9752 | 1.717 and 0.9934 and 0.846 and 0.4952 | 0.6677 and 0.9983 and 1.484 and 1.06
